Key:
mPTP [1] = assay: mPTP activity (Ca2+ retention) assay in isolated rat liver mitochondria; format: biochemical; settings: isolated rat liver mitochondria; Fluo5N fluorescence at 10 min after CaCl2 (75 μM) bolus; DMSO 0%, 5 μM cyclosporin A 100% inhibition
Method in brief: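 Freshly isolated female Sprague Dawley rat liver mitochondria with succinate, rotenone and Fluo5N were preincubated 10 min at RT with compounds (final 30 μM to 1 nM), then challenged with CaCl2. Fluorescence at 10 min gave % inhibition versus DMSO (0%) and 5 μM cyclosporin A (100%); pIC50 calculated.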

mPTP [2] = assay: mPTP activity (Ca2+ retention) assay in isolated rat brain mitochondria; format: biochemical; settings: isolated rat brain mitochondria; Fluo5N fluorescence at 10 min after Ca2+ (75 μM) bolus
Method in brief: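 Mitochondria freshly isolated from brains of perfused female Sprague Dawley rats, digitonin-treated, in pH 7.4 mannitol/MOPS/KCl buffer with pyruvate, malate, ADP and oligomycin A. Incubated with compound 10 min at RT with 2 μM Fluo5N. Fluorescence then read every 3 s for 10 min.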

| SMILES | mPTP Rat liver pIC50* (mPTP [1]) | mPTP Rat brain pIC50 (mPTP [2]) |
| --- | --- | --- |
| O=C(c1cc(O)no1)N1CC(c2ccccc2)C2(CCC2)C1 (single isomer, unassigned) [Example 23b, (3-hydroxyisoxazol-5-yl)(8-phenyl-6-azaspiro[3.4]octan-6-yl)methanone] | <4.52 | <4.52 |
| O=C(c1cncc(=O)[nH]1)N1CC(c2cccc(Cl)c2F)C2(CCC2)C1 (single isomer, unassigned) [Example 33b, 6-(8-(3-chloro-2-fluorophenyl)-6-azaspiro[3.4]octane-6-carbonyl)pyrazin-2(1H)-one] | <4.52 | <4.52 |
| CCC1CN(C(=O)c2cncc(=O)[nH]2)CC1c1ccccc1 (single isomer, unassigned) [Example 15b, 6-(3-ethyl-4-phenylpyrrolidine-1-carbonyl)pyrazin-2(1H)-one] | <4.52 | 4.81 |
| O=C(c1cc(O)no1)N1CC(c2cccc(F)c2)C2(CCC2)C1 (single isomer, unassigned) [Example 38b, (8-(3-fluorophenyl)-6-azaspiro[3.4]octan-6-yl)(3-hydroxyisoxazol-5-yl)methanone] | <4.52 | <4.52 |
| CC1(C)CN(C(=O)c2cncc(=O)[nH]2)CCC1c1ccccc1 (stereo not shown) [Example 9, 6-(3,3-dimethyl-4-phenylpiperidine-1-carbonyl)pyrazin-2(1H)-one] | 5.28 | 6.61 |
| O=C(c1cncc(=O)[nH]1)N1CC(c2cccc(F)c2)C2(CCC2)C1 (single isomer, unassigned) [Example 40a, 6-(8-(3-fluorophenyl)-6-azaspiro[3.4]octane-6-carbonyl)pyrazin-2(1H)-one] | 6.55 | 7.34 |
| O=C(c1ccnc(=O)[nH]1)N1CC(c2ccccc2)C2(CCC2)C1 (single isomer, unassigned) [Example 27b, 6-(8-phenyl-6-azaspiro[3.4]octane-6-carbonyl)pyrimidin-2(1H)-one] | <4.52 | <4.52 |
| CCC1CN(C(=O)c2cncc(=O)[nH]2)CC1c1ccccc1 (single isomer, unassigned) [Example 15a, 6-(3-ethyl-4-phenylpyrrolidine-1-carbonyl)pyrazin-2(1H)-one] | 5.27 | 6.1 |
| O=C(c1cncc(O)n1)N1CC(c2ccccc2)C2(CCC2)C1 (single isomer, unassigned) [Example 6b, (6-hydroxypyrazin-2-yl)(8-phenyl-6-azaspiro[3.4]octan-6-yl)methanone] | 4.59 | <4.52 |
| O=C(c1cc(O)no1)N1CC(c2ccc(F)cc2F)C2(CCC2)C1 (single isomer, unassigned) [Example 42b, (8-(2,4-difluorophenyl)-6-azaspiro[3.4]octan-6-yl)(3-hydroxyisoxazol-5-yl)methanone] | <4.52 | <4.52 |
| N#Cc1ccc(C2CN(C(=O)c3cncc(=O)[nH]3)CC23CCC3)cc1 (single isomer, unassigned) [Example 20a, 4-[6-(6-oxo-1H-pyrazine-2-carbonyl)-6-azaspiro[3.4]octan-8-yl]benzonitrile] | <4.52 | 4.64 |
| O=C(c1nccc(=O)[nH]1)N1CC(c2ccccc2)C2(CC(F)C2)C1 (single isomer, unassigned) [Example 25b, 2-(2-fluoro-8-phenyl-6-azaspiro[3.4]octane-6-carbonyl)pyrimidin-4(3H)-one] | <4.52 | 5.57 |
| O=C(c1cncc(=O)[nH]1)N1CC(c2ccc(Cl)cc2)C2(CCC2)C1 (single isomer, unassigned) [Example 16b, 6-[8-(4-Chlorophenyl)-6-azaspiro[3.4]octane-6-carbonyl]-1H-pyrazin-2-one] | <4.52 | <4.52 |
| O=C(c1nccc(=O)[nH]1)N1CC(c2ccccc2)C2(CC(F)C2)C1 (single isomer, unassigned) [Example 25d, 2-(2-fluoro-8-phenyl-6-azaspiro[3.4]octane-6-carbonyl)pyrimidin-4(3H)-one] | <4.52 | <4.52 |
| O=C(c1cncc(=O)[nH]1)N1CC(c2ccc(F)cc2F)C2(CCC2)C1 (single isomer, unassigned) [Example 37b, 6-(8-(2,4-difluorophenyl)-6-azaspiro[3.4]octane-6-carbonyl)pyrazin-2(1H)-one] | <4.52 | <4.52 |
| O=C(c1cncc(=O)[nH]1)N1CC(c2ccccc2Cl)C2(CCC2)C1 (single isomer, unassigned) [Example 30b, 6-(8-(2-chlorophenyl)-6-azaspiro[3.4]octane-6-carbonyl)pyrazin-2(1H)-one] | <4.52 | <4.52 |
| O=C(c1cncc(O)c1)N1CC(c2ccccc2)C2(CCC2)C1 (single isomer, unassigned) [Example 1b, (5-hydroxypyridin-3-yl)(8-phenyl-6-azaspiro[3.4]octan-6-yl)methanone] | 6.01 | 6.94 |
| O=C(c1cncc(=O)[nH]1)N1CC(c2ccccc2)C2(CCCC2)C1 (single isomer, unassigned) [Example 17a, 6-[4-Phenyl-2-azaspiro[4.4]nonane-2-carbonyl]-1H-pyrazin-2-one] | 6 | 6.63 |
| O=C(c1noc(=O)[nH]1)N1CC(c2ccc(F)c(F)c2)C2(CCC2)C1 (single isomer, unassigned) [Example 47b, 3-(8-(3,4-difluorophenyl)-6-azaspiro[3.4]octane-6-carbonyl)-1,2,4-oxadiazol-5(4H)-one] | <4.52 | <4.52 |
| O=C(c1cncc(=O)[nH]1)N1CC(c2cccc(F)c2F)C2(CCC2)C1 (single isomer, unassigned) [Example 43b, 6-(8-(2,3-difluorophenyl)-6-azaspiro[3.4]octane-6-carbonyl)pyrazin-2(1H)-one] | 4.94 | 5.69 |
| O=C(c1noc(=O)[nH]1)N1CC(c2ccc(F)cc2)C2(CCC2)C1 (single isomer, unassigned) [Example 41b, 3-(8-(4-fluorophenyl)-6-azaspiro[3.4]octane-6-carbonyl)-1,2,4-oxadiazol-5(4H)-one] | <4.52 | <4.52 |
| Cn1nc(C(=O)N2CC(c3ccccc3F)C3(CCC3)C2)[nH]c1=O (stereo not shown) [Example 11, 5-(8-(2-fluorophenyl)-6-azaspiro[3.4]octane-6-carbonyl)-2-methyl-2,4-dihydro-3H-1,2,4-triazol-3-one] | 4.75 | 6.25 |
| O=C(c1cncc(=O)[nH]1)N1CC(c2ccc(Br)cc2)C2(CCC2)C1 (single isomer, unassigned) [Example 29a, 6-(8-(4-bromophenyl)-6-azaspiro[3.4]octane-6-carbonyl)pyrazin-2(1H)-one] | 4.59 | 6.2 |
